Each compound was assayed against T1, RORc ligand binding domain (Homo sapiens, UniProt P51449) (assay: In Vitro RORc Ligand Binding Assay). Conditions: RORc IC50, radioligand 25-[3H]hydroxycholesterol 6 nM; 0.6 ug/mL RORc receptor; 3 h at 25° C.
T1 sequence (P51449 269-508 limits assumed): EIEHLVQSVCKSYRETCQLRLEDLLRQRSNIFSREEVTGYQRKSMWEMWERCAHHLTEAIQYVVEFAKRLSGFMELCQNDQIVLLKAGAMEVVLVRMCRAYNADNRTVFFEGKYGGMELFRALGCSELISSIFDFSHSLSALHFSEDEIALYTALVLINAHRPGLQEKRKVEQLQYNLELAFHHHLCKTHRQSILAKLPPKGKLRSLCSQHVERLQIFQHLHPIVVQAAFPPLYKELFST

Going from `C=C(C)c1cnc(-c2cncc([C@@]34CC[C@@H](c5cc(-c6c(F)cccc6F)nnc53)C4(C)C)n2)o1` [Example 343, 2-(6-((5R,8S)-3-(2,6-difluorophenyl)-9,9-dimethyl-5,6,7,8-tetrahydro-5,8-methanocinnolin-8-yl)pyrazin-2-yl)-5-(prop-1-en-2-yl)oxazole] to `CC(C)(O)c1cnc(-c2cncc([C@@]34CC[C@@H](c5cc(-c6c(F)cccc6F)nnc53)C4(C)C)n2)o1` [Example 342, 2-(2-(6-((5R,8S)-3-(2,6-difluorophenyl)-9,9-dimethyl-5,6,7,8-tetrahydro-5,8-methanocinnolin-8-yl)pyrazin-2-yl)oxazol-5-yl)propan-2-ol], the IC50 rises from 1.6 nM to 11.7 nM (7.3-fold). The first is the more potent here.

Going from `CC1(C)[C@H]2CC[C@]1(c1cc(C#N)ccn1)c1nnc(-c3c(F)cccc3F)cc12` [Example 42] to `CC1(C)[C@H]2CC[C@]1(c1ccnc(N)n1)c1nnc(-c3c(F)cccc3F)cc12` [Example 23], the IC50 rises from 12.1 nM to 21.9 nM (1.8-fold).

Compared with `Cc1nnc(-c2ccnc([C@@]34CC[C@@H](c5cc(-c6c(F)cccc6F)nnc53)C4(C)C)c2)[nH]1` [Example 223], `CC(C)(O)c1cc(-c2nccc([C@@]34CC[C@@H](c5cc(-c6c(F)cccc6F)nnc53)C4(C)C)n2)ccn1` [Example 372] is 24-fold lower in IC50: 62.3 nM for the first, 2.6 nM for the second.

Compared with `CC(=O)Nc1cncc([C@@]23CC[C@@H](c4cc(-c5c(F)cccc5F)nnc42)C3(C)C)n1` [Example 32, N-(6-((5R,8S)-3-(2,6-difluorophenyl)-9,9-dimethyl-5,6,7,8-tetrahydro-5,8-methanocinnolin-8-yl)pyrazin-2-yl)acetamide], `CC1(C)[C@H]2CC[C@]1(c1cncc(C(=O)O)n1)c1nnc(-c3c(F)cccc3F)cc12` [Example 11, 6-((5R,8S)-3-(2,6-difluorophenyl)-9,9-dimethyl-5,6,7,8-tetrahydro-5,8-methanocinnolin-8-yl)pyrazine-2-carboxylic acid] is 1.8-fold higher in IC50: 22 nM for the first, 38.9 nM for the second.

Going from `CC1(C)[C@H]2CC[C@]1(c1nccc(-c3ccn[nH]3)n1)c1nnc(-c3c(F)cccc3F)cc12` [Example 302, (5R,8R)-8-(4-(1H-pyrazol-5-yl)pyrimidin-2-yl)-3-(2,6-difluorophenyl)-9,9-dimethyl-5,6,7,8-tetrahydro-5,8-methanocinnoline] to `CC1(C)[C@H]2CC[C@]1(c1ccnc(-c3ccc(=O)[nH]c3)n1)c1nnc(-c3c(F)cccc3F)cc12` [Example 289], the IC50 rises from 9.9 nM to 15.1 nM (1.5-fold).

First: COC(=O)c1nccc([C@@]23CC[C@@H](c4cc(-c5c(F)cccc5Cl)nnc42)C3(C)C)n1 [Example 160]
Second: COC(=O)c1ncc(Br)c([C@@]23CC[C@@H](c4cc(-c5c(F)cccc5F)nnc42)C3(C)C)n1 [Example 187]
The IC50 of the first is 2-fold lower: 13.1 nM for the first, 26.4 nM for the second. The first is the more potent here.

Compared with `CC1(C)[C@H]2CC[C@]1(c1cncc(C(=O)NCC#N)n1)c1nnc(-c3c(F)cccc3F)cc12` [Example 92, N-(cyanomethyl)-6-((5R,8S)-3-(2,6-difluorophenyl)-9,9-dimethyl-5,6,7,8-tetrahydro-5,8-methanocinnolin-8-yl)pyrazine-2-carboxamide], `C[C@H](O)CNC(=O)c1cncc([C@]23CC[C@H](c4cc(-c5c(F)cccc5F)nnc42)C3(C)C)n1` [Example 89, 6-((5S,8R)-3-(2,6-difluorophenyl)-9,9-dimethyl-5,6,7,8-tetrahydro-5,8-methanocinnolin-8-yl)-N-((S)-2-hydroxypropyl)pyrazine-2-carboxamide] is 1.6-fold lower in IC50: 20.6 nM for the first, 12.8 nM for the second.

First: CC1(C)[C@H]2CC[C@]1(c1nc(C#N)ncc1Cl)c1nnc(-c3c(F)cccc3F)cc12 [Example 233]
Second: CC1(C)[C@H]2CC[C@]1(c1cc(C#N)ncc1Br)c1nnc(-c3c(F)cccc3F)cc12 [Example 165, 5-bromo-4-((5R,8S)-3-(2,6-difluorophenyl)-9,9-dimethyl-5,6,7,8-tetrahydro-5,8-methanocinnolin-8-yl)picolinonitrile]
The IC50 of the first is 1.8-fold lower: 13.8 nM for the first, 25.1 nM for the second. The first is the more potent here.

First: CC(C)(C)OC(=O)N1CCC(c2nccc([C@@]34CC[C@@H](c5cc(-c6c(F)cccc6F)nnc53)C4(C)C)n2)CC1 [Example 345]
Second: CC(C)(C)OC(=O)N1CCC[C@@H](c2nccc([C@@]34CC[C@@H](c5cc(-c6c(F)cccc6F)nnc53)C4(C)C)n2)C1 [Example 361]
The IC50 of the first is 1.5-fold lower: 13 nM for the first, 20.1 nM for the second. The first is the more potent here.

Going from `Cc1ncnn1-c1cc([C@@]23CC[C@@H](c4cc(-c5c(F)cccc5F)nnc42)C3(C)C)cnn1` [Example 390, (5R,8S)-3-(2,6-difluorophenyl)-9,9-dimethyl-8-(6-(5-methyl-1H-1,2,4-triazol-1-yl)pyridazin-4-yl)-5,6,7,8-tetrahydro-5,8-methanocinnoline] to `Cc1nc(CO)nn1-c1nccc([C@@]23CC[C@@H](c4cc(-c5c(F)cccc5F)nnc42)C3(C)C)n1` [Example 358], the IC50 falls from 317 nM to 60.4 nM (5.2-fold). The second is the more potent here.

Compared with `C[C@@H](O)c1nnc(-c2cncc([C@@]34CC[C@@H](c5cc(-c6c(F)cccc6F)nnc53)C4(C)C)n2)[nH]1` [Example 225, (R)-1-(5-(6-((5R,8S)-3-(2,6-difluorophenyl)-9,9-dimethyl-5,6,7,8-tetrahydro-5,8-methanocinnolin-8-yl)pyrazin-2-yl)-4H-1,2,4-triazol-3-yl)ethanol], `CC[C@@H](O)c1n[nH]c(-c2cncc([C@@]34CC[C@@H](c5cc(-c6c(F)cccc6F)nnc53)C4(C)C)n2)n1` [Example 278, (R)-1-(5-(6-((5R,8S)-3-(2,6-difluorophenyl)-9,9-dimethyl-5,6,7,8-tetrahydro-5,8-methanocinnolin-8-yl)pyrazin-2-yl)-1H-1,2,4-triazol-3-yl)propan-1-ol] is 3.1-fold lower in IC50: 21 nM for the first, 6.8 nM for the second. The second is the more potent here.

`CC1(C)[C@H]2CC[C@]1(c1cccc(C(=O)NC(CO)CO)n1)c1nnc(-c3c(F)cccc3F)cc12` [Example 130, 6-((5R,8S)-3-(2,6-difluorophenyl)-9,9-dimethyl-5,6,7,8-tetrahydro-5,8-methanocinnolin-8-yl)-N-(1,3-dihydroxypropan-2-yl)picolinamide] and `CC1(C)[C@H]2CC[C@]1(c1cncc(C(=O)NC(CO)CO)n1)c1nnc(-c3c(F)cccc3F)cc12` [Example 119, 6-((5R,8S)-3-(2,6-difluorophenyl)-9,9-dimethyl-5,6,7,8-tetrahydro-5,8-methanocinnolin-8-yl)-N-(1,3-dihydroxypropan-2-yl)pyrazine-2-carboxamide] are within 1.5-fold of each other in IC50: 55.3 nM for the first, 58.9 nM for the second.

First: CC(C)(O)c1cn(-c2nccc([C@@]34CC[C@@H](c5cc(-c6c(F)cccc6F)nnc53)C4(C)C)n2)cn1 [Example 239]
Second: CC(C)(O)c1ccc(-c2nccc([C@@]34CC[C@@H](c5cc(-c6c(F)cccc6F)nnc53)C4(C)C)n2)cn1 [Example 370]
The IC50 of the first is 3.2-fold higher: 13.9 nM for the first, 4.4 nM for the second. The second is the more potent here.

First: CC1(C)[C@H]2CC[C@]1(c1cncc(-c3nc([C@H](O)C(F)(F)F)n[nH]3)n1)c1nnc(-c3c(F)cccc3F)cc12 [Example 309, (S)-1-(5-(6-((5R,8S)-3-(2,6-difluorophenyl)-9,9-dimethyl-5,6,7,8-tetrahydro-5,8-methanocinnolin-8-yl)pyrazin-2-yl)-1H-1,2,4-triazol-3-yl)-2,2,2-trifluoroethanol]
Second: CC(C)(O)Cc1n[nH]c(-c2cncc([C@@]34CC[C@@H](c5cc(-c6c(F)cccc6F)nnc53)C4(C)C)n2)n1 [Example 354, 1-(5-(6-((5R,8S)-3-(2,6-difluorophenyl)-9,9-dimethyl-5,6,7,8-tetrahydro-5,8-methanocinnolin-8-yl)pyrazin-2-yl)-1H-1,2,4-triazol-3-yl)-2-methylpropan-2-ol]
The IC50 of the first is 4.3-fold higher: 88.4 nM for the first, 20.7 nM for the second. The second is the more potent here.

Compared with `CC1(C)[C@H]2CC[C@]1(c1cncc(C(=O)N[C@H]3C[C@@H](O)C3)n1)c1nnc(-c3c(F)cccc3F)cc12` [Example 93, 6-((5R,8S)-3-(2,6-difluorophenyl)-9,9-dimethyl-5,6,7,8-tetrahydro-5,8-methanocinnolin-8-yl)-N-((1s,3R)-3-hydroxycyclobutyl)pyrazine-2-carboxamide], `CC1(C)[C@H]2CC[C@]1(c1cncc(CNS(C)(=O)=O)n1)c1nnc(-c3c(F)cccc3F)cc12` [Example 134, N-((6-((5R,8S)-3-(2,6-difluorophenyl)-9,9-dimethyl-5,6,7,8-tetrahydro-5,8-methanocinnolin-8-yl)pyrazin-2-yl)methyl)methanesulfonamide] is 1.7-fold lower in IC50: 31.8 nM for the first, 18.8 nM for the second.

Compared with `COC(=O)c1ccn(-c2nccc([C@@]34CC[C@@H](c5cc(-c6c(F)cccc6F)nnc53)C4(C)C)n2)n1` [Example 282], `CC1(C)[C@H]2CC[C@]1(c1ccnc(-n3cc(CCO)cn3)n1)c1nnc(-c3c(F)cccc3F)cc12` [Example 215] is 5.7-fold higher in IC50: 4.9 nM for the first, 28.1 nM for the second. The first is the more potent here.

Going from `C[C@H](CO)NC(=O)c1ccnc([C@@]23CC[C@@H](c4cc(-c5c(F)cccc5F)nnc42)C3(C)C)c1` [Example 67] to `CC1(C)[C@H]2CC[C@]1(c1cncc(-n3cnc(CO)c3)n1)c1nnc(-c3c(F)cccc3F)cc12` [Example 236], the IC50 falls from 276 nM to 5.8 nM (48-fold).

`C[C@H](O)c1nnc(-c2ncc(F)c([C@@]34CC[C@@H](c5cc(-c6c(F)cccc6F)nnc53)C4(C)C)n2)[nH]1` [Example 257] and `CC1(C)[C@H]2CC[C@]1(c1cncc(-c3noc(=O)[nH]3)n1)c1nnc(-c3c(F)cccc3F)cc12` [Example 125, 3-(6-((5R,8S)-3-(2,6-difluorophenyl)-9,9-dimethyl-5,6,7,8-tetrahydro-5,8-methanocinnolin-8-yl)pyrazin-2-yl)-1,2,4-oxadiazol-5(4H)-one] are within 1.5-fold of each other in IC50: 22.6 nM for the first, 20.9 nM for the second.

Work on `CC(C)(O)c1cc(-c2cncc([C@@]34CC[C@@H](c5cc(-c6c(F)cccc6F)nnc53)C4(C)C)n2)on1` [Example 269, 2-(5-(6-((5R,8S)-3-(2,6-difluorophenyl)-9,9-dimethyl-5,6,7,8-tetrahydro-5,8-methanocinnolin-8-yl)pyrazin-2-yl)isoxazol-3-yl)propan-2-ol] yielded an IC50 of 3 nM.

— patent US10487068B2, “Pyridazine derivatives as RORc modulators” (Genentech, Inc., priority 2015, dated 2019)
